# From ChEMBL document CHEMBL1201862, “PubChem BioAssay data set” (2004)
# Activity calls are given as the source filed them.
# Key:
# [1] = Luminescence-based cell-based high throughput dose response assay to identify activators of the DAF-12 from the parasite S. stercoralis (ssDAF-12).; type: functional
# [2] = biological target: T1, Oxysterols receptor LXR-beta (Homo sapiens, UniProt P55055); test: LXR agonists, Gal4 luciferase reporter, dose response, counter-screen for ssDAF-12 agonist project, cell-based, luminescence, HEK293, S. stercoralis campaign (AID 720737); type: functional; conditions: read-out: IC50 (the source's name)
# T1 sequence (P55055 whole entry): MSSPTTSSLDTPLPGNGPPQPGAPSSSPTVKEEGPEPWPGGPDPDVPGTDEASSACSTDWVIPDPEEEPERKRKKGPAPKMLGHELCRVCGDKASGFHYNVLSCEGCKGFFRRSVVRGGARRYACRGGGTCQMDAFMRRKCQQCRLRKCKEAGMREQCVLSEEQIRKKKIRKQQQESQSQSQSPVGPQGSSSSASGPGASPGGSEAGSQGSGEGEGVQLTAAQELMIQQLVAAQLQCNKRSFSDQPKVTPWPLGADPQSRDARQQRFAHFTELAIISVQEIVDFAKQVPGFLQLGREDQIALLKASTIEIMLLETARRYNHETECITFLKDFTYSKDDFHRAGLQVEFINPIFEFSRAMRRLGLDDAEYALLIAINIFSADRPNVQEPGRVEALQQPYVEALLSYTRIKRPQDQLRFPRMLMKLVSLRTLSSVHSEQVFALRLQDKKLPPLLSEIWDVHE
# Estrogen receptor = biological target: T2, Estrogen receptor (Homo sapiens, UniProt P03372);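 also: potency for inhibiting coactivator peptide recruitment to the receptor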
# T2 sequence (P03372 whole entry): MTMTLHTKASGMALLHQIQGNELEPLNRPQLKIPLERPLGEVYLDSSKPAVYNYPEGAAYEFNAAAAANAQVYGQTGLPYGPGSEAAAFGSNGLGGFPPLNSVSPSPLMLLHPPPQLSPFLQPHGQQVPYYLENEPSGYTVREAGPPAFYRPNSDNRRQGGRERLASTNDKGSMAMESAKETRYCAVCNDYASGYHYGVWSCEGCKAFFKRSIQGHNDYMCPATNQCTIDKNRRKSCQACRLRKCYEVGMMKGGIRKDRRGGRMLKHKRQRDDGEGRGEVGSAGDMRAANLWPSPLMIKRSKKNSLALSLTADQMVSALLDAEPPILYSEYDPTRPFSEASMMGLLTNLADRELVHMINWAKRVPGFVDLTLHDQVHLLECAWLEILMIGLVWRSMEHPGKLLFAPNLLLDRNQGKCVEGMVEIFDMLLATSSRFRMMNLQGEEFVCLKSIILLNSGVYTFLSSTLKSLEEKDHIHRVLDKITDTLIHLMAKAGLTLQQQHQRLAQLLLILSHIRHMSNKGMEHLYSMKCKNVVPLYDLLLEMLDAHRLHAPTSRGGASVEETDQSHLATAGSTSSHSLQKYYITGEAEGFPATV
# [3] = biological target: Mitogen-activated protein kinase 10 (Homo sapiens, UniProt P53779); test: Dose response biochemical screening assay for inhibitors of c-Jun N-Terminal Kinase 3 (JNK3). [Related pubchem assays: 746 ]
# Paired box protein Pax-8 = Paired box protein Pax-8 (Homo sapiens, UniProt Q06710); test: PAX8 transcriptional activity inhibition in RMG-I – RMG-I cells, luciferase, cherry-pick, dose response (AID 687027); type: functional, cell-based;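 also: luciferase reporter driven by Pax8 target thyroperoxidase promoter measured by SteadyGlo luminescence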
# [4] = A2780 cell killing – plate reader, dry powder samples, cytotoxicity control, dose response (AID 743046); type: functional, cell-based
# [5] = OVCAR-3 cell viability loss – plate reader, dry powder samples, PAX8 inhibitor project, dose response (AID 743044); type: functional, cell-based
# [6] = IGROV1 cell killing – plate reader, dry powder samples, PAX8 inhibitor project, dose response (AID 743043); type: functional, cell-based; conditions: IGROV-1
# [7] = OVCAR8 cell viability loss – plate reader, dry powder samples, PAX8 project, dose response (AID 743197); type: functional, cell-based; conditions: OVCAR-8
# [8] = growth inhibition of yeast DHODH-expressing 3D7 parasites – SYBR Green, dry powder samples, dose response (AID 1159570); type: functional, cell-based;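 also: parasite growth measured after 72 hours of compound exposure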
# [9] = toxicity to human HepG2 hepatoma cells – cell-based, plate reader, dry powder samples, cytotoxicity control, dose response (AID 1159569); type: functional;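 also: inhibitor potency with signal falling toward the positive control level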
# [10] = P. falciparum Dd2 growth inhibitors, dose response, SYBR Green, cherry-picked samples (AID 1159567); type: functional, cell-based
# [11] = Dd2 malaria parasite growth inhibition potency – SYBR Green, dry powder samples, dose response (AID 1159566); type: functional, cell-based;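 also: potency for growth inhibition with lower SYBR green DNA signal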
# [12] = growth inhibition of PfATP4-mutant resistant parasites – NITD609-resistant line, SYBR Green, dry powder, dose response (AID 1159571); type: functional, cell-based;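 also: parasites synchronized at ring stage by sorbitol before testing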
# [13] = blockers of HIV-1 envelope-mediated cell-cell fusion – cherry-pick, dose response (AID 652057); type: functional, cell-based
# [14] = viability loss in CEM21 cells – cell-based, CellTiter-Glo luminescence, cherry-picked, cytotoxicity control for viral fusion inhibitor project, dose response (AID 652042); type: functional;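 also: potency for signal decrease meaning cytotoxicity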
# [15] = blockers of HIV-1 ZM109 envelope-driven cell-cell fusion – HeLa effector, CEM target cells, luciferase, cherry-pick, dose response (AID 652058); type: functional, cell-based;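 also: luciferase signal from HIV-1 Env mediated cell-cell fusion of effector and target cells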
# [16] = HIV-1 AD8 envelope cell-cell fusion blockers – cherry-pick, dose response (AID 652062); type: functional, cell-based;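 also: luciferase signal from cell-cell fusion driven by HIV-1 clade B AD8 Env; potency is for inhibitors of fusion seen as a drop in luminescence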
# Prothrombin = Prothrombin (Homo sapiens, UniProt P00734); test: Thrombin 1536 HTS Dose Response Confirmation. [Related pubchem assays: 1046 (Thrombin 1536 HTS; hits were confirmed in this assay)]; type: functional
# [17] = Trypanosoma cruzi growth suppression in host cells – NIH3T3 host cells, beta-gal luminescence, confirmation (AID 2044); type: functional, cell-based;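 also: intracellular parasites grown in NIH/3T3 mouse fibroblasts as host cells; luminescent beta-galactosidase reporter signal from transgenic T. cruzi replicating inside host cells; inhibitors lower the luminescence signal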
# [18] = NIH3T3 cell viability loss – ATP luminescence, mouse fibroblasts, counter-screen, dose response (AID 2010); type: functional, cell-based;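 also: cells exposed to compound for about 90 hours before reading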
# [19] = biological target: Disintegrin and metalloproteinase domain-containing protein 17 (Homo sapiens, UniProt P78536); test: exosite inhibitors of ADAM17, dose response, biochemical (AID 743260)
# [20] = inhibition of ADAM10 peptide cleavage – biochemical, FRET peptide substrate, recombinant human ADAM10, selectivity assay for ADAM17 exosite inhibitor project, dose response (AID 743259);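 also: ADAM10 enzyme cleaving a FRET peptide substrate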
# [21] = viability inhibitors of stage V gametocytes – luminescence, dose response (AID 1117278); type: functional, cell-based;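 also: gametocytes exposed to compound for 24 hours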
# [22] = viability loss in human Jurkat cells – cell-based, luminescence, cytotoxicity control for P. falciparum gametocyte viability project, dose response (AID 1117277); type: functional;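 also: potency reflects loss of cellular ATP meaning fewer viable cells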
# [23] = biological target: T3, Luciferin 4-monooxygenase (Photinus pyralis, UniProt P08659); test: Counter Screen for Luciferase-based Assay Positives. [Related pubchem assays: 620, 618, 411 ]
# HT-1080 = test: HT1080 cell viability loss – fluorescence readout (AID 620); type: functional, cell-based; conditions: Homo sapiens
# [24] = Luminescence Cell-Based Dose Response HTS to Identify Inhibitors of 5'UTR Stem-Loop Driven Prion Protein mRNA Translation in H4 Neuroglioblastoma Cells. [Related pubchem assays: 1827 (Project Summary), 1813 (Primary HTS)]; type: functional
# [25] = biological target: T4, Heat shock factor protein 1 (Mus musculus, UniProt P38532); test: decrease of HSF1-responsive luciferase luminescence – cell-based, NIH3T3, dose retest, confirmation (AID 2382); type: functional;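 also: NIH3T3 fibroblasts with HSF1-driven luciferase reporter stressed by proteasome inhibitor MG132; luminescence from HSF1-driven luciferase expression after 8 hours of MG132 stress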
# T4 sequence (P38532 whole entry): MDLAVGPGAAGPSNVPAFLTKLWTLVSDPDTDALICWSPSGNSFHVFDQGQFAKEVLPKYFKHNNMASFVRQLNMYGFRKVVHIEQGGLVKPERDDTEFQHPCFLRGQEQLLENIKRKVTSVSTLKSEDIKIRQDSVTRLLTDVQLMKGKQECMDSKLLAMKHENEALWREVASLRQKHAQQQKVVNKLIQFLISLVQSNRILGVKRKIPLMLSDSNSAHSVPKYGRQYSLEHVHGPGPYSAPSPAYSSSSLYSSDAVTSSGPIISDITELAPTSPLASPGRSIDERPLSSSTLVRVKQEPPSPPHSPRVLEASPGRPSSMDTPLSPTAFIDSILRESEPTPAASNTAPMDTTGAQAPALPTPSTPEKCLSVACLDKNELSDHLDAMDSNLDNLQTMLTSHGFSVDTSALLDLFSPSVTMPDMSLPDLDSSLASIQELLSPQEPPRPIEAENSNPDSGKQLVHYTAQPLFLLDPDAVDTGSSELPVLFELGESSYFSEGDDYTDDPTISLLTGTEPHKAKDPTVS
# [26] = alpha-synuclein stem-loop luciferase translation blockers – H4 neuroglioma cells, luminescence, confirmation (AID 1988); type: functional, cell-based
# [27] = biological target: T3, Luciferin 4-monooxygenase; test: inhibition of purified Photinus pyralis luciferase – biochemical, luminescence, dose response (AID 1891)
# [28] = Luminescence Cell-Based Dose Confirmation HTS to Identify Inhibitors of Platelet Dense Granule Release. [Related pubchem assays: 1663 (Primary HTS), 1678 (Summary of Project)]; type: functional
# [29] = microbe, parasite or virus in culture; type: functional; conditions: Mycobacterium tuberculosis
# [30] = biological target: FAD-linked sulfhydryl oxidase ALR (Homo sapiens, UniProt P55789); test: ALR-catalysed DTT oxidation blockers – biochemical, H2O2 detection, luminescence, cherry-pick, dose response (AID 493248)
# INS1 = test: INS-1E survival protection against cytokine death – cell-based, luminescence, retest, dose response (AID 449756); type: functional; conditions: Rattus norvegicus;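 also: cell death triggered by IL-1 beta plus TNF-alpha plus IFN-gamma mixture; protective hits raise ATP signal compared with cytokine alone wells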
# [31] = off-target signal loss in HeLa-CEM21 co-culture – HeLa F-luc CTL cells, cherry-picked, counter-screen for HIV-1 Env fusion inhibitor project, dose response (AID 652040); type: functional, cell-based;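 also: potency for signal decrease marking cytotoxic or nonspecific inhibition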
# Mitogen-activated protein kinase 10, sequence (P53779 whole entry): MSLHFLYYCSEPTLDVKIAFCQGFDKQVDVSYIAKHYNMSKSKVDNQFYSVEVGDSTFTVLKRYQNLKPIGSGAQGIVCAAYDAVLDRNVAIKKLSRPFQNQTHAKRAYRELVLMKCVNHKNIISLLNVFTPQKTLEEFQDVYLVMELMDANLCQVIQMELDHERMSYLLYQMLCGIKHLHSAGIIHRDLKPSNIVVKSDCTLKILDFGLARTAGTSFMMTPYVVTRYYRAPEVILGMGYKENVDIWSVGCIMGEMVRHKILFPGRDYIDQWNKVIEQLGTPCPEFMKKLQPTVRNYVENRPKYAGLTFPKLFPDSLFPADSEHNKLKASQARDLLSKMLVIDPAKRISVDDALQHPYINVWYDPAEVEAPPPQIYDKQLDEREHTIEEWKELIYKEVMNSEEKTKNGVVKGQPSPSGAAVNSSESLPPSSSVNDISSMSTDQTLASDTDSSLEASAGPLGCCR
# Disintegrin and metalloproteinase domain-containing protein 17, sequence (P78536 whole entry, the tested form may be a part): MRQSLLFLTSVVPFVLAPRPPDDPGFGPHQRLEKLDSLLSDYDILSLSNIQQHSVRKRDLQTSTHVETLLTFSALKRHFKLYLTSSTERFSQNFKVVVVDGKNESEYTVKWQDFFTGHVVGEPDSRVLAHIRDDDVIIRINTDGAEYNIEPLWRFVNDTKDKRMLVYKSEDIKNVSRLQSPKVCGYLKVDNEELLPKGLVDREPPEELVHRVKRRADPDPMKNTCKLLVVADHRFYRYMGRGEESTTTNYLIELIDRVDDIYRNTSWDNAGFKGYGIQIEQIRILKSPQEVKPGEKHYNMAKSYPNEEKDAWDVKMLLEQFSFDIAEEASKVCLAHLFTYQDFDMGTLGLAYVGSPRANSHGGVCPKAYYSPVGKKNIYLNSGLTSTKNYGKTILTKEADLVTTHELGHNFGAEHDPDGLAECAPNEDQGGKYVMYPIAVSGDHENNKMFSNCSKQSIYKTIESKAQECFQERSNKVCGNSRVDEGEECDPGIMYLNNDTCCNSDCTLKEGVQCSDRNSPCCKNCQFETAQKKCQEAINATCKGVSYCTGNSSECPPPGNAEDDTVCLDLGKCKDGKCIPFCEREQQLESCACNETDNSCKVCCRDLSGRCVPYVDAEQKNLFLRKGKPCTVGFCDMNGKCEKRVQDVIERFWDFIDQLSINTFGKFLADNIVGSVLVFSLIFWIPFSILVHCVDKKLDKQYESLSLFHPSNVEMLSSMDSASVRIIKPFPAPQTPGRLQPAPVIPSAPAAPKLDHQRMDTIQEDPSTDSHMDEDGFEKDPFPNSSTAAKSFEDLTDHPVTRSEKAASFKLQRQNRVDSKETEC
# T3 sequence (P08659 whole entry): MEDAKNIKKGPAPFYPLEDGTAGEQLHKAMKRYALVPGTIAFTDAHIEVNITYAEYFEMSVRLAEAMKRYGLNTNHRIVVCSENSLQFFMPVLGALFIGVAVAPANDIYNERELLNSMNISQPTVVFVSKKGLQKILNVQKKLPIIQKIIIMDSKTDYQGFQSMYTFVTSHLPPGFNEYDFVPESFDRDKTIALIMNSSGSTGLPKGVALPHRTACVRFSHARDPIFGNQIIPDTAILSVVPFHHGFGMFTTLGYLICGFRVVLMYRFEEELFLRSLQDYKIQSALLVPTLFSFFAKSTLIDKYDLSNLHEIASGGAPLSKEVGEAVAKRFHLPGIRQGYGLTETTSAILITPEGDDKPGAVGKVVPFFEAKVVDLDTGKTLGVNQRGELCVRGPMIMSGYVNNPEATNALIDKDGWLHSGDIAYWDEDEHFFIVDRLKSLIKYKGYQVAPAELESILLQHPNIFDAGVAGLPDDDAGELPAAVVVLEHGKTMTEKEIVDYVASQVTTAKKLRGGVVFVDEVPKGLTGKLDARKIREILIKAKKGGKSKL
# Paired box protein Pax-8, sequence (Q06710 whole entry): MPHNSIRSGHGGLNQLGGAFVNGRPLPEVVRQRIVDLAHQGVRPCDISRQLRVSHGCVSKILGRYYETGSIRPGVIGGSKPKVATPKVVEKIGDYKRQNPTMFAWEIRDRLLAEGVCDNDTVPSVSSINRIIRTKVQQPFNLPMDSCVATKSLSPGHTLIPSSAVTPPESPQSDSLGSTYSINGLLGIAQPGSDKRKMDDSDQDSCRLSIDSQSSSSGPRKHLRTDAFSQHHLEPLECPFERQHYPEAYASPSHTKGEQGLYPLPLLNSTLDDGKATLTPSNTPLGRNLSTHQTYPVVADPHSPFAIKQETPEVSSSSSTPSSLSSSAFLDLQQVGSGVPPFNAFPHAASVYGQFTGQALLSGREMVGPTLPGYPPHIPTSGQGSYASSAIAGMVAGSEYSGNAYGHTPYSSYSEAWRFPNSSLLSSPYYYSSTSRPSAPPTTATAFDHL
# FAD-linked sulfhydryl oxidase ALR, sequence (P55789 whole entry): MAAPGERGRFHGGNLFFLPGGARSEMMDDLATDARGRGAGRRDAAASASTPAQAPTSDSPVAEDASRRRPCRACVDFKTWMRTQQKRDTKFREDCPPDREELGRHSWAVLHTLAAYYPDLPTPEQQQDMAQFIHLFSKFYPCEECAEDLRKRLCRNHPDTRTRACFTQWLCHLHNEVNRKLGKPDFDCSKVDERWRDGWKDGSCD
smiles,measurement,setting,value
COC(=O)c1ccccc1NC(=O)NCc1ccncc1,IC50,[1],> 67.5 µM (inactive)
same,EC50,[2],> 67.5 µM (inactive)
Cc1nc2cccc(C(=O)NCc3ccccc3)c2o1,IC50,Estrogen receptor,48.4 µM (not active)
same,IC50,[3],45.5 µM (not active)
COc1ccc2c3c(n(C)c2c1)[C@H](CO)N(C(=O)Nc1ccc(F)cc1)CC31CCN(C(=O)c2ccc3c(c2)OCO3)CC1,AC50,Paired box protein Pax-8,6.51 µM (active)
same,AC50,[4],22.5 µM (active)
same,AC50,[5],28.6 µM (active)
same,AC50,[6],57.7 µM (active)
same,AC50,[7],4.33 µM (active)
same,AC50,[8],1.2 µM (active)
same,AC50,[9],> 100 µM (inactive)
same,AC50,[10],1.79 µM (active)
same,AC50,[11],0.892 µM (active)
same,AC50,[12],0.75 µM (active)
c1ccc(-c2n[nH]c3c2CCC3)cc1,IC50,[3],50.9 µM (not active)
CO[C@H]1CN(C)C(=O)c2ccc(NC(=O)C3CC3)cc2OC[C@H](C)N(Cc2cc(F)ccc2F)C[C@@H]1C,AC50,[13],0.851 µM (active)
same,AC50,[14],59.9 µM (active)
same,AC50,[15],0.668 µM (active)
same,AC50,[16],1.5 µM (active)
Cc1ccc(NCc2nc3ccccc3n2C)cc1,IC50,[1],> 67.5 µM (inactive)
same,EC50,[2],> 67.5 µM (inactive)
COC(=O)CN1C(=O)C(O)(CC(=O)c2ccc(Cl)cc2)c2ccccc21 (stereo unspecified),IC50,Prothrombin,> 50 µM (not active)
CC(C)Nc1nc(NC(C)C)nc(N(C#N)CCOc2ccc(Cl)cc2Cl)n1,EC50,[17],1.4 µM (active)
same,EC50,[18],> 60 µM (not active)
same,IC50,[19],> 69.5 µM (inactive)
same,IC50,[20],13.5 µM (inactive)
O=C1c2ccccc2C(O)N1Cc1cccs1 (stereo unspecified),IC50,[21],> 109 µM (inactive)
same,IC50,[22],> 83.3 µM (inactive)
COc1ccc2nc(NC(=O)Cc3ccc(OC)c(S(=O)(=O)N4CCOCC4)c3)sc2c1,IC50,[3],28.1 µM (not active)
CN(C)S(=O)(=O)c1cccc(NC(=O)c2cc(-c3cccs3)nn2-c2cccc(Cl)c2)c1,IC50,[19],> 69.5 µM (inactive)
same,IC50,[20],> 69.5 µM (inactive)
Cc1cccc(-n2ncc3c(N4CCCC4)ncnc32)c1,EC50,[23],1.02 µM (active)
same,EC50,HT-1080,> 50 µM (not active)
CC(=O)Oc1ccc(C(=O)Nc2cccc(C(=O)c3ccc(C)c(C)c3)c2)cc1,IC50,[19],> 69.5 µM (inactive)
same,IC50,[20],> 69.5 µM (inactive)
CCc1ccc(CN(C)Cc2nc(COc3ccccc3)no2)nc1,IC50,[21],> 109 µM (inactive)
same,IC50,[22],> 83.3 µM (inactive)
COc1ccc(/N=C/C2=C(O)c3ccccc3C2=O)c(OC)c1,EC50,[23],50.2 µM (active)
same,EC50,[24],11.7 µM (active)
same,EC50,[25],2.42 µM (active)
same,EC50,[26],8.03 µM (active)
same,EC50,[27],1.21 µM (active)
same,EC50,[28],3.47 µM (active)
same,EC50,HT-1080,> 50 µM (not active)
Cc1ccc(NC(=O)c2ccc3ccccc3n2)cc1S(=O)(=O)N1CCOCC1,IC50,Prothrombin,40.9 µM (active)
CC(=O)Nc1ccc(S(=O)(=O)Nc2ccc(N3CCCCC3)cc2)cc1,CC50,[29],27.3 µM (active)
same,AC50,[30],2.07 µM (active)
same,AC50,INS1,3.64 µM (active)
same,AC50,[13],10.4 µM (active)
same,AC50,[14],23.4 µM (active)
same,AC50,[15],1.18 µM (active)
same,AC50,[31],22.6 µM (active)
same,AC50,[16],17.8 µM (active)
Cc1ccccc1-c1ccc2c(c1)O[C@H](CN(C)C(=O)Nc1ccc(C(F)(F)F)cc1)[C@H](C)CN([C@H](C)CO)S2(=O)=O,AC50,Paired box protein Pax-8,9.06 µM (active)
same,AC50,[4],14.3 µM (active)
same,AC50,[7],> 70 µM (inactive)
